Values quoted from earlier work as cited in patent US20080113031A1, “Minicapsule Formulations” (priority 2004, published 2008).
Values belong to the molecule of their own block, whether it stands above or below them.

Columns and labels:
[1] = not given; remark: listed apart in the source

- solubility in water: practically insoluble
Molecule: COCCOC(=O)C1=C(C)NC(C)=C(C(=O)OC(C)C)C1c1cccc([N+](=O)[O-])c1 (centres unmarked) [Nimodipine]

B1: PAL from Rhodosporidium toruloides: phenylalanine ammonia-lyase from Rhodosporidium toruloides (protein, UniProt P11544 1-716, looked up)
Phenylalanine/tyrosine …: MAPSLDSISHSFANGVASAKQAVNGASTNLAVAGSHLPTTQVTQVDIVEKMLAAPTDSTLELDGYSLNLGDVVSAARKGRPVRVKDSDEIRSKIDKSVEFLRSQLSMSVYGVTTGFGGSADTRTEDAISLQKALLEHQLCGVLPSSFDSFRLGRGLENSLPLEVVRGAMTIRVNSLTRGHSAVRLVVLEALTNFLNHGITPIVPLRGTISASGDLSPLSYIAAAISGHPDSKVHVVHEGKEKILYAREAMALFNLEPVVLGPKEGLGLVNGTAVSASMATLALHDAHMLSLLSQSLTAMTVEAMVGHAGSFHPFLHDVTRPHPTQIEVAGNIRKLLEGSRFAVHHEEEVKVKDDEGILRQDRYPLRTSPQWLGPLVSDLIHAHAVLTIEAGQSTTDNPLIDVENKTSHHGGNFQAAAVANTMEKTRLGLAQIGKLNFTQLTEMLNAGMNRGLPSCLAAEDPSLSYHCKGLDIAAAAYTSELGHLANPVTTHVQPAEMANQAVNSLALISARRTTESNDVLSLLLATHLYCVLQAIDLRAIEFEFKKQFGPAIVSLIDQHFGSAMTGSNLRDELVEKVNKTLAKRLEQTNSYDLVPRWHDAFSFAAGTVVEVLSSTSLSLAAVNAWKVAAAESAISLTRQVRETFWSAASTSSPALSYLSPRTQILYAFVREELGVKARRGDVFLGKQEVTIGSNVSKIYEAIKSGRINNVLLKMLA
- activity at pH 2.2 [1]: no activity
